Activity calls are given as the source filed them. No cut-off for these calls is given here.
Assays:
[1] = test system: Mus musculus; assay: Decrease in life span of mice treated with compound dose of 320 mg/kg; type: functional
[2] = test system: Mus musculus; assay: Decrease in life span of mice treated with compound dose of 160 mg/kg; type: functional
[3] = test system: Plasmodium berghei; assay: Percent inhibition of adenosine uptake by Plasmodium berghei; type: functional
[4] = test system: Plasmodium berghei; assay: Percent inhibition of hypoxanthine uptake by Plasmodium berghei; type: functional
[5] = test system: Salmonella typhimurium; assay: Mutagenic response at 1000 nmol/plate or lower for strain TA 100 of Salmonella Typhimurium; Not significant; type: functional, organism-based; details: Salmonella enterica subsp. enterica serovar Typhimurium
[6] = test system: Salmonella typhimurium; assay: Mutagenic response at 1000 nmol/plate or lower for strain TA 98 of Salmonella Typhimurium; Not significant; type: functional, organism-based; details: Salmonella enterica subsp. enterica serovar Typhimurium

For CCCCN(CCCC)CC(O)c1ccc2ncc3ccccc3c2c1 (stereo not drawn), the “Decrease in life span” value [1] was 0.1 days.
For CCCCN(CCCC)CCC(O)c1c2ccccc2nc2ccccc12 (stereo not drawn), the “Decrease in life span” value [2] was 0.4 days.
Compound OC(CN1CCCCC1)c1c2ccccc2nc2ccccc12 (stereo not drawn) has an Inhibition [3] of 31% and an Inhibition [4] of 50%.
With c1ccc2c(C3CO3)c3ccccc3nc2c1 (stereo not drawn) the Mutagenicity [5] was “inactive” and the Mutagenicity [6] was “inactive”.
CCN(CC)CCCC(C)Nc1c2ccc(Cl)cc2nc2ccc(OC)cc12 (stereo not drawn) [QUINACRINE] was tested, and the Inhibition [3] was 80% and the Inhibition [4] was 92%.

— ChEMBL document CHEMBL1121675, “Syntheses of 9-acridine- and 2-phenanthridinemethanols as potential antimalarials” (1981)
